Each structure is given as a SMILES string.

We go through 25 compounds from patent US20090012103A1, “SUBSTITUTED HETEROCYCLIC COMPOUNDS” (priority 2007, published 2009).

For one assay, the target named is wild-type human cardiac sodium channel, hNav1.5 (Homo sapiens, UniProt Q14524). The assay is described as follows: Late INa screening assay (late sodium current, PatchXpress whole cell patch clamp). Conditions: compound at 10 μM; read-out: Late INa % blk. The assay is classed as cell-based.
wild-type human cardiac sodium channel, hNav1.5, sequence (Q14524 whole entry): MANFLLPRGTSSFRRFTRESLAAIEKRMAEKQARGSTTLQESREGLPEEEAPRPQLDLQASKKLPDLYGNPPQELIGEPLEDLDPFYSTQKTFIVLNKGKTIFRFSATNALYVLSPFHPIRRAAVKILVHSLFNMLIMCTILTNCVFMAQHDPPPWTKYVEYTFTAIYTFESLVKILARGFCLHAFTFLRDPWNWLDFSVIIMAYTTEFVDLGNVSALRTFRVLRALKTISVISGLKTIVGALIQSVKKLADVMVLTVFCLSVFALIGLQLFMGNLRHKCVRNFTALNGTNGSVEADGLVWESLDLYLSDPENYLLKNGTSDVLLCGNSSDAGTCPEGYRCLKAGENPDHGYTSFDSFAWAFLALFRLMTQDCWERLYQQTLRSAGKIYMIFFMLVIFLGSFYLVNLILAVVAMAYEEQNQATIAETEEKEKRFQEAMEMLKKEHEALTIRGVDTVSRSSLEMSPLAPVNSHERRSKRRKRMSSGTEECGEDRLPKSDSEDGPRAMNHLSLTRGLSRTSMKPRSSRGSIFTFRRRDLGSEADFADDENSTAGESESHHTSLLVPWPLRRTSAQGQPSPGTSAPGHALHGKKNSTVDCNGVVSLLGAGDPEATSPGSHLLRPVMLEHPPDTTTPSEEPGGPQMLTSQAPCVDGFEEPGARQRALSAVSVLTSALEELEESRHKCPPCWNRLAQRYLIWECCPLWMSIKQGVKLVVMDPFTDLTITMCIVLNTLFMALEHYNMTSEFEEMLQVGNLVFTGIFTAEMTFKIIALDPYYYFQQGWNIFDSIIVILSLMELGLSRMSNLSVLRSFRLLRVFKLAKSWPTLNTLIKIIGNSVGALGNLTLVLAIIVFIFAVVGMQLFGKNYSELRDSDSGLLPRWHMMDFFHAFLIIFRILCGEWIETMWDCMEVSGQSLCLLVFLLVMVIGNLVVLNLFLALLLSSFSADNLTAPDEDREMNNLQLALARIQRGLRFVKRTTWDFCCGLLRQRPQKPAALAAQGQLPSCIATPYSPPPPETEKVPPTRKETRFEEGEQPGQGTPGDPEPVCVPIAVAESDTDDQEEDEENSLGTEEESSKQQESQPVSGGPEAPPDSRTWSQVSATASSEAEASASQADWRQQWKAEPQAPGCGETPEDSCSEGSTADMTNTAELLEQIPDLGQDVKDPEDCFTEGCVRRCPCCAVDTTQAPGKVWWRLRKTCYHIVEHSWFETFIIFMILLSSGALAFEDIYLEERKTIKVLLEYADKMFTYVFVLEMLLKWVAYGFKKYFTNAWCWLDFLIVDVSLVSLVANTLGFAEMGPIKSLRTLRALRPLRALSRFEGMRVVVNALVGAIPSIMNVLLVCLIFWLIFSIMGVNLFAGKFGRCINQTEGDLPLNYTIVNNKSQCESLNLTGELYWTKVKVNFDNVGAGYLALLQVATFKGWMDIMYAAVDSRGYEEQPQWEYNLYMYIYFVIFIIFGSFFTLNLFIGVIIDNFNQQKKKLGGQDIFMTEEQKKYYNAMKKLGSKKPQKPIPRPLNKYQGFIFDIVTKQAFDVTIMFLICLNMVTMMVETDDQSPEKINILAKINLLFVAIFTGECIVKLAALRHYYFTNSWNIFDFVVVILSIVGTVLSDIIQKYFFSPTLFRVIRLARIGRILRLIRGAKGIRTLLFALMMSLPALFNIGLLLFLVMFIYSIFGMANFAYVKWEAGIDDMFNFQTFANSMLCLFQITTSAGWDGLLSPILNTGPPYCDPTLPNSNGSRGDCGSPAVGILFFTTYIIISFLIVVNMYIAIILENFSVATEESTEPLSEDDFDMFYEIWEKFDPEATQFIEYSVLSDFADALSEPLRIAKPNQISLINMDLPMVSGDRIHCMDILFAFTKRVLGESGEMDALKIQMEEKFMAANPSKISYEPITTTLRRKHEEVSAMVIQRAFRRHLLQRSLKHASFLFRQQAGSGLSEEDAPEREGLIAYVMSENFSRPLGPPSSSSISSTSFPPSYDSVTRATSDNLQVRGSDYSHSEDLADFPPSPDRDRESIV
Consider `CC1=C(C(=O)OC(C)C)C(c2cc(-c3ccccc3)cs2)C2=C(CC(C)(C)CC2=O)N1` (stereo not shown) [PT-159, isopropyl 2,7,7-trimethyl-5-oxo-4-(4-phenylthiophen-2-yl)-1,4,5,6,7,8-hexahydroquinoline-3-carboxylate], for which the inhibition at 10 µM worked out at 46.3%.

Take `CC1=C(C(=O)OC(C)C)C(c2cnn(-c3ccccc3C)c2C)C2=C(CC(C)(C)CC2=O)N1` (stereo not shown) [PT-161, isopropyl 2,7,7-trimethyl-4-(5-methyl-1-o-tolyl-1H-pyrazol-4-yl)-5-oxo-1,4,5,6,7,8-hexahydroquinoline-3-carboxylate]: the inhibition at 10 µM was determined as 6.8%.

`CC1=C(C(=O)N2CCN(c3ccc(Cl)cc3)CC2)C(c2ccsc2)C2=C(CCCC2=O)N1` (stereo not shown) [PT-167, 3-(4-(4-chlorophenyl)piperazine-1-carbonyl)-2-methyl-4-(thiophen-3-yl)-4,6,7,8-tetrahydroquinolin-5(1H)-one]: the inhibition at 10 µM was -10%.

Regarding `CC1=C(C(=O)N2CCC(c3ccccc3)CC2)C(c2ccc3ccccc3c2)C2=C(CCCC2=O)N1` (stereo not shown) [PT-169, 2-methyl-4-(naphthalen-2-yl)-3-(4-phenylpiperidine-1-carbonyl)-4,6,7,8-tetrahydroquinolin-5(1H)-one], the inhibition at 10 µM worked out at 11.8%.

Turning to `CC1=C(C(=O)N2CCC(c3ccccc3)CC2)C(c2cccc3ccccc23)C2=C(CCCC2=O)N1` (stereo not shown) [PT-170, 2-methyl-4-(naphthalen-1-yl)-3-(4-phenylpiperidine-1-carbonyl)-4,6,7,8-tetrahydroquinolin-5(1H)-one], the inhibition at 10 µM turned out to be 9.8%.

As to `CC1=C(C(=O)N2CCc3ccccc3C2)C(c2cccc3ccccc23)C2=C(CCCC2=O)N1` (stereo not shown) [PT-171, 2-methyl-4-(naphthalen-1-yl)-3-(1,2,3,4-tetrahydroisoquinoline-2-carbonyl)-4,6,7,8-tetrahydroquinolin-5(1H)-one], the inhibition at 10 µM was found to be 20.2%.

For the compound `CC1=C(C(=O)N2CCC(c3cccc(C(=O)O)c3)CC2)C(c2cccc3ccccc23)C2=C(CCCC2=O)N1` (stereo not shown) [PT-172, 3-(1-(2-methyl-4-(naphthalen-1-yl)-5-oxo-1,4,5,6,7,8-hexahydroquinoline-3-carbonyl)piperidin-4-yl)benzoic acid], the inhibition at 10 µM was 16.3%.

On to `CCCC1=C(C(=O)OCC)C(c2ccc(Br)s2)C(C(=O)OCC)=C(CCC)N1` [PT-182, diethyl 4-(5-bromothiophen-2-yl)-2,6-dipropyl-1,4-dihydropyridine-3,5-dicarboxylate], for which the inhibition at 10 µM is 33%.

As for `CCOC(=O)C1=C(C)NC2=C(C(=O)c3ccccc32)C1c1cccs1` (stereo not shown) [PT-187, ethyl 2-methyl-5-oxo-4-(thiophen-2-yl)-4,5-dihydro-1H-indeno[1,2-b]pyridine-3-carboxylate], the inhibition at 10 µM is -2.6%.

As for `CCOC(=O)C1=C(C)NC2=C(C(=O)CCC2)C1c1cc2cc(OC)ccc2nc1Cl` (stereo not shown) [PT-188, ethyl 2-chloro-6-methoxy-2′-methyl-5′-oxo-1′,4′,5′,6′,7′,8′-hexahydro-3,4′-biquinoline-3′-carboxylate], the inhibition at 10 µM was -0.8%.

Consider `CCOC(=O)C1=C(C)NC2=C(C(=O)CCC2)C1c1cccnc1Cl` (stereo not shown) [PT-189, ethyl 4-(2-chloropyridin-3-yl)-2-methyl-5-oxo-1,4,5,6,7,8-hexahydroquinoline-3-carboxylate], for which the inhibition at 10 µM turned out to be 0.5%.

For the compound `CC1=C(C(=O)OCc2ccccc2)C(c2ccc3ccccc3n2)n2nnnc2N1` (stereo not shown) [PT-196, benzyl 5-methyl-7-(quinolin-2-yl)-4,7-dihydrotetrazolo[1,5-a]pyrimidine-6-carboxylate], the inhibition at 10 µM turned out to be 32.5%.

On to `CC1=C(C(=O)OCc2ccccc2)C(c2ccnc3ccccc23)n2nnnc2N1` (stereo not shown) [PT-197, benzyl 5-methyl-7-(quinolin-4-yl)-4,7-dihydrotetrazolo[1,5-a]pyrimidine-6-carboxylate], for which the inhibition at 10 µM was 21.5%.

As for `COc1ccc(-c2ccc(COC(=O)C3=C(C)Nc4nnnn4C3c3cccc4ccccc34)cc2)cc1` (stereo not shown) [PT-199, (4′-methoxybiphenyl-4-yl)methyl 5-methyl-7-(naphthalen-1-yl)-4,7-dihydrotetrazolo[1,5-a]pyrimidine-6-carboxylate], the inhibition at 10 µM was found to be 20.3%.

`COC(=O)c1ccc(-c2ccc(COC(=O)C3=C(C)Nc4nnnn4C3c3cccc4ccccc34)cc2)cc1` (stereo not shown) [PT-200, (4′-(methoxycarbonyl)biphenyl-4-yl)methyl 5-methyl-7-(naphthalen-1-yl)-4,7-dihydrotetrazolo[1,5-a]pyrimidine-6-carboxylate]: the inhibition at 10 µM was found to be 7.4%.

Turning to `CCOC(=O)C1=C(C)Nc2nnnn2C1c1ccc(C2C(C(=O)OCC)=C(C)Nc3nnnn32)cc1` (stereo not shown) [PT-201, diethyl 7,7′-(1,4-phenylene)bis(5-methyl-4,7-dihydrotetrazolo[1,5-a]pyrimidine-6-carboxylate)], the inhibition at 10 µM amounted to 7.8%.

In the case of `CCOC(=O)C1=C(C)Nc2nnnn2C1c1cccc(C2C(C(=O)OCC)=C(C)Nc3nnnn32)c1` (stereo not shown) [PT-202, diethyl 7,7′-(1,3-phenylene)bis(5-methyl-4,7-dihydrotetrazolo[1,5-a]pyrimidine-6-carboxylate)], the inhibition at 10 µM was 9.7%.

`CC1=C(c2nnc(-c3ccccc3)o2)C(c2cccc3ccccc23)n2nnnc2N1` (stereo not shown) [PT-203, 2-(5-methyl-7-(naphthalen-1-yl)-4,7-dihydrotetrazolo[1,5-a]pyrimidin-6-yl)-5-phenyl-1,3,4-oxadiazole]: the inhibition at 10 µM is 10.9%.

As to `O=C1OCC(O)=C1C(C1=C(O)COC1=O)c1cccc2ccccc12` [PT-222, 3,3′-(naphthalen-1-ylmethylene)bis(4-hydroxyfuran-2(5H)-one)], the inhibition at 10 µM worked out at 15.8%.

With `CC1=C(C(=O)OCc2ccccc2)[C@@H](c2ccccc2-c2ccc(C(F)(F)F)cc2)n2nnnc2N1` [PT-236, (R)-benzyl 5-methyl-7-(4′-(trifluoromethyl)biphenyl-2-yl)-4,7-dihydrotetrazolo[1,5-a]pyrimidine-6-carboxylate], the inhibition at 10 µM came to 68%.

For `CC1=C(C(=O)OCc2ccccc2)[C@@H](c2ccccc2-c2cccc(C(N)=O)c2)n2nnnc2N1` [PT-238, (R)-benzyl 7-(3′-carbamoylbiphenyl-2-yl)-5-methyl-4,7-dihydrotetrazolo[1,5-a]pyrimidine-6-carboxylate], the inhibition at 10 µM amounted to 49.9%.

With `CC1=C(C(=O)OCc2ccccc2)[C@@H](c2ccccc2-c2cccc(C#N)c2)n2nnnc2N1` [PT-239, (R)-benzyl 7-(3′-cyanobiphenyl-2-yl)-5-methyl-4,7-dihydrotetrazolo[1,5-a]pyrimidine-6-carboxylate], the inhibition at 10 µM is 94.8%.

In the case of `CC1=C(C(=O)OCc2ccccc2)[C@@H](c2ccccc2-c2cccc(F)c2)n2nnnc2N1` [PT-240, (R)-benzyl 7-(3′-fluorobiphenyl-2-yl)-5-methyl-4,7-dihydrotetrazolo[1,5-a]pyrimidine-6-carboxylate], the inhibition at 10 µM is 85%.

The assay is the same for the next values; noted with them: read-out: Late INa % blk.
Consider `c1ccc2c(c1)CCC1=C2C(c2cccc3ccccc23)n2nnnc2N1` (stereo not shown) [PT-198, 12-(naphthalen-1-yl)-5,6,7,12-tetrahydrobenzo[f]tetrazolo[5,1-b]quinazoline], for which the inhibition at 10 µM is 50.9%.

Still in this assay, the particulars now being: result in words.
In the case of `CC1=C(C(=O)N2CCN(c3ccccc3)CC2)C(c2ccsc2)C2=C(CCCC2=O)N1` (stereo not shown) [PT-166, 2-methyl-3-(4-phenylpiperazine-1-carbonyl)-4-(thiophen-3-yl)-4,6,7,8-tetrahydroquinolin-5(1H)-one], the “effect on late sodium current” value is “potentiated late sodium current”.
